According to patent EP0889898B1, “MORPHOLINYL ANTHRACYCLINE DERIVATIVES” (PHARMACIA & UPJOHN S.p.A., priority 1996, dated 1998):

Test system: L1210 leukemia cells
Assay: In vitro cytotoxic activity, growth inhibition test (colony growth), 48h treatment
Format: cell-based
Details: ratio of IC50 values versus compound 1
Protocol: 3'-Deamino-3",4'-anhydro-[2"(S)-methoxy-3"(R)-hydroxy-4"-morpholinyl]doxorubicin 2a was tested in vitro on L1210 leukemia cells in comparison with 3'-deamino-3'-[2"(S)-methoxy-4"-morpholinyl]doxorubicin (1). The cytotoxic activity is reported as IC50, the concentration inhibiting 50% of colony growth, calculated on concentration response curves. […]

## COc1cccc2c1C(=O)c1c(O)c3c(c(O)c1C2=O)CC(O)(C(=O)CO)CC3OC1CC2C(OC3C(OC)OCCN23)C(C)O1 [Compound 2a, 3'-deamino-3"-4'-anhydro-[2"(S)-methoxy-3"(R)-hydroxy-4"-morpholinyl]doxorubicin]
  fold more potent than compound 1: 2.5x10^3 fold
